According to US20170000133A1, “BENZOXABOROLE FUNGICIDES” (SYNGENTA PARTICIPATIONS AG, priority 2013, published 2017):

Key:
Pythium ultimum = Pythium ultimum / liquid culture (seedling damping off); assay type: cell-based; details: Globisporangium ultimum; 200 ppm; potato dextrose broth, 24° C., 2-3 days after application; read-out: disease control (inhibition of growth determined photometrically)
Plasmopara viticola = assay: whole plant or invertebrate; assay type: in vivo; details: foliar, read-out: disease control
[1] = system: Monographella nivalis (Microdochium nivale); assay: Monographella nivalis (Microdochium nivale) / liquid culture (foot rot cereals); assay type: cell-based; details: PDB potato dextrose broth, 24° C., 4-5 days after application, read-out: disease control (inhibition of growth determined photometrically)
Gaeumannomyces graminis = Gaeumannomyces graminis / liquid culture (take-all of cereals); assay type: cell-based; details: PDB potato dextrose broth, 24° C., 4-5 days after application, read-out: disease control (inhibition of growth determined photometrically)
Procedure: 14. Gaeumannomyces graminis/Liquid Culture (Take-all of Cereals): Mycelial fragments of the fungus from cryogenic storage were directly mixed into nutrient broth (PDB potato dextrose broth). After placing a DMSO solution of test compound into a 96-well microtiter plate at an application rate of 200 ppm, the nutrient broth […], containing the fungal spores is added. The test plates were incubated at 24° C. and the inhibition of growth was determined photometrically 4-5 days after application.

SMILES: Cc1nnc(NC(=O)c2cc3c(cc2F)COB3O)s1 [Compound 184]
- inhibition at 200 ppm (Pythium ultimum): ≥ 80%
- pest or weed control at 200 ppm (Plasmopara viticola): ≥ 80%

SMILES: N#CCCOC(=O)c1cc2c(cc1F)COB2O [Compound 420]
- inhibition at 200 ppm (Pythium ultimum): ≥ 80%
- pest or weed control at 200 ppm (Plasmopara viticola): ≥ 80%

SMILES: COc1ccc(-c2ccccc2)cc1NC(=O)c1ccc2c(c1)B(O)OC2 [Compound 289]
- inhibition at 200 ppm (Pythium ultimum): ≥ 80%
- pest or weed control at 200 ppm (Plasmopara viticola): ≥ 80%

SMILES: O=C(OCc1ccc(C(F)(F)F)cc1Cl)c1cc2c(cc1Cl)COB2O [Compound 200]
- inhibition at 200 ppm [1]: ≥ 80%
- inhibition at 200 ppm (Gaeumannomyces graminis): ≥ 80%

SMILES: O=C(Nc1ccc(Oc2ccccc2)nc1)c1ccc2c(c1)B(O)OC2 [Compound 306]
- inhibition at 200 ppm (Pythium ultimum): ≥ 80%
- pest or weed control at 200 ppm (Plasmopara viticola): ≥ 80%

SMILES: O=C(NCCc1c[nH]c2ccccc12)c1cc2c(cc1Cl)COB2O [Compound 97]
- inhibition at 200 ppm (Gaeumannomyces graminis): ≥ 80%
- inhibition at 200 ppm (Pythium ultimum): ≥ 80%

SMILES: O=C(Nc1ccc(Oc2ccccc2)nc1)c1cc2c(cc1F)COB2O [Compound 185]
- inhibition at 200 ppm (Pythium ultimum): ≥ 80%
- pest or weed control at 200 ppm (Plasmopara viticola): ≥ 80%

SMILES: COc1ccc(NC(=O)c2cc3c(cc2F)COB3O)c(OC)c1 [Compound 155]
- inhibition at 200 ppm (Pythium ultimum): ≥ 80%
- pest or weed control at 200 ppm (Plasmopara viticola): ≥ 80%

SMILES: O=C(NCc1ccccc1OC(F)(F)F)c1ccc2c(c1)B(O)OC2 [Compound 273]
- inhibition at 200 ppm (Pythium ultimum): ≥ 80%
- pest or weed control at 200 ppm (Plasmopara viticola): ≥ 80%

SMILES: N#CCCOC(=O)c1ccc2c(c1)B(O)OC2 [Compound 357]
- inhibition at 200 ppm (Pythium ultimum): ≥ 80%
- pest or weed control at 200 ppm (Plasmopara viticola): ≥ 80%

SMILES: O=C(NCc1ccccc1F)c1cc2c(cc1Cl)COB2O [Compound 73]
- inhibition at 200 ppm (Pythium ultimum): ≥ 80%
- pest or weed control at 200 ppm (Plasmopara viticola): ≥ 80%

SMILES: O=C(NCc1cccc(Cl)c1)c1ccc2c(c1)B(O)OC2 [Compound 268]
- inhibition at 200 ppm (Pythium ultimum): ≥ 80%
- pest or weed control at 200 ppm (Plasmopara viticola): ≥ 80%

SMILES: O=C(Nc1ccc(S(=O)(=O)Nc2ccccn2)cc1)c1cc2c(cc1Cl)COB2O [Compound 143]
- inhibition at 200 ppm (Pythium ultimum): ≥ 80%
- pest or weed control at 200 ppm (Plasmopara viticola): ≥ 80%

SMILES: O=C(NCc1ccccc1F)c1ccc2c(c1)B(O)OC2 [Compound 262]
- inhibition at 200 ppm (Pythium ultimum): ≥ 80%
- pest or weed control at 200 ppm (Plasmopara viticola): ≥ 80%

SMILES: O=C(Nc1ccccc1N1CCOCC1)c1cc2c(cc1F)COB2O [Compound 170]
- inhibition at 200 ppm (Pythium ultimum): ≥ 80%
- pest or weed control at 200 ppm (Plasmopara viticola): ≥ 80%

SMILES: O=C(NCc1ccccc1C(F)(F)F)c1cc2c(cc1Cl)COB2O [Compound 99]
- inhibition at 200 ppm [1]: ≥ 80%
- inhibition at 200 ppm (Pythium ultimum): ≥ 80%

SMILES: CC(C#N)OC(=O)c1cc2c(cc1F)COB2O (stereo not shown) [Compound 376]
- inhibition at 200 ppm (Pythium ultimum): ≥ 80%
- pest or weed control at 200 ppm (Plasmopara viticola): ≥ 80%

SMILES: Cc1cc(=O)oc2cc(NC(=O)c3cc4c(cc3Cl)COB4O)ccc12 [Compound 139]
- inhibition at 200 ppm (Gaeumannomyces graminis): ≥ 80%
- inhibition at 200 ppm (Pythium ultimum): ≥ 80%

SMILES: O=C(OCCc1ccc(Cl)cc1Cl)c1cc2c(cc1Cl)COB2O [Compound 190]
- inhibition at 200 ppm [1]: ≥ 80%
- inhibition at 200 ppm (Gaeumannomyces graminis): ≥ 80%

SMILES: O=C(Nc1ccc(-n2cccc2)cc1)c1cc2c(cc1Cl)COB2O [Compound 125]
- inhibition at 200 ppm (Gaeumannomyces graminis): ≥ 80%
- inhibition at 200 ppm (Pythium ultimum): ≥ 80%

SMILES: O=C(Nc1cccc(F)c1)c1cc2c(cc1F)COB2O [Compound 157]
- inhibition at 200 ppm (Gaeumannomyces graminis): ≥ 80%
- inhibition at 200 ppm (Pythium ultimum): ≥ 80%

SMILES: O=C(Nc1cc(C(F)(F)F)ccc1N1CCOCC1)c1ccc2c(c1)B(O)OC2 [Compound 291]
- inhibition at 200 ppm (Gaeumannomyces graminis): ≥ 80%

SMILES: O=C(Nc1ccc(S(=O)(=O)Nc2ccccn2)cc1)c1cc2c(cc1F)COB2O [Compound 174]
- inhibition at 200 ppm (Pythium ultimum): ≥ 80%
- pest or weed control at 200 ppm (Plasmopara viticola): ≥ 80%

SMILES: COc1ccc(NC(=O)c2ccc3c(c2)B(O)OC3)c(OC)c1 [Compound 283]
- inhibition at 200 ppm (Pythium ultimum): ≥ 80%
- pest or weed control at 200 ppm (Plasmopara viticola): ≥ 80%

SMILES: C=CC(=O)OCC(C)OC(=O)c1cc2c(cc1F)COB2O (stereo not shown) [Compound 372]
- inhibition at 200 ppm [1]: ≥ 80%
- inhibition at 200 ppm (Pythium ultimum): ≥ 80%

SMILES: CC(NC(=O)c1cc2c(cc1F)COB2O)c1ccccc1 (stereo not shown) [Compound 109]
- inhibition at 200 ppm (Pythium ultimum): ≥ 80%
- pest or weed control at 200 ppm (Plasmopara viticola): ≥ 80%

SMILES: N#CCOC(=O)c1cc2c(cc1Cl)COB2O [Compound 213]
- inhibition at 200 ppm (Pythium ultimum): ≥ 80%
- pest or weed control at 200 ppm (Plasmopara viticola): ≥ 80%

SMILES: O=C(Nc1cccc(F)c1)c1ccc2c(c1)B(O)OC2 [Compound 285]
- inhibition at 200 ppm (Pythium ultimum): ≥ 80%
- pest or weed control at 200 ppm (Plasmopara viticola): ≥ 80%
